{"source": "BindingDB's records for doi:10.1016/0960-894X(95)00299-9", "about": "(1995)", "data": [{"experiment": "Tested for 50% of inhibition of Osteoclastic acid phosphatase (OAP) activity, determined using dose-response curve", "units": {"IC50": "µM"}, "values": [{"smiles": "O=C(c1ccccc1)C(C(=O)c1ccccc1)(c1cccc2ccccc12)P(=O)(O)O", "note": "[2-(naphthalen-1-yl)-1,3-dioxo-1,3-diphenylpropan-2-ylphosphonic acid]", "IC50": 1.4}, {"smiles": "O=P(O)(O)C(Cc1ccccc1)c1cccc2ccccc12", "note": "(configuration not stated) [(1-Naphthalen-1-yl-2-phenyl-ethyl)-phosphonic acid]", "IC50": 21}, {"smiles": "O=P(O)(O)C(Cc1ccc(-c2ccccc2)cc1)c1cccc2ccccc12", "note": "(configuration not stated) [(2-Biphenyl-4-yl-1-naphthalen-1-yl-ethyl)-phosphonic acid]", "IC50": 6.3}, {"smiles": "O=P(O)(O)C(CC1CCCCC1)c1cccc2ccccc12", "note": "(configuration not stated) [(2-Cyclohexyl-1-naphthalen-1-yl-ethyl)-phosphonic acid]", "IC50": 11.4}, {"smiles": "O=P(O)(O)C(Cc1ccc(Cl)cc1)c1cccc2ccccc12", "note": "(configuration not stated) [[2-(4-Chloro-phenyl)-1-naphthalen-1-yl-ethyl]-phosphonic acid]", "IC50": 21}, {"smiles": "Cc1ccc2ccccc2c1C(CC1CCCCC1)P(=O)(O)O", "note": "(configuration not stated) [[2-Cyclohexyl-1-(2-methyl-naphthalen-1-yl)-ethyl]-phosphonic acid]", "IC50": 11}, {"smiles": "O=P(O)(O)Cc1cccc2ccccc12", "note": "[naphthalen-1-ylmethylphosphonic acid]", "IC50": 30}]}]}
